Measurements from patent US11787799B2 (priority 2015, dated 2023).
Where “and” joins values, the source holds several entries; their conditions need not be identical. Equal entries are not always repeated.

Assays:
[1] = tested on: Poliovirus 1; experiment: microbe, parasite or virus in culture; assay type: cell-based; details: read-out: EC50 PV1
[2] = tested on: Poliovirus 3; experiment: microbe, parasite or virus in culture; assay type: cell-based; details: read-out: EC50 PV3
[3] = tested on: Echovirus 11; experiment: microbe, parasite or virus in culture; assay type: cell-based; details: read-out: EC50 ECHO11
[4] = tested on: HeLa-RW cells
[5] = tested on: Coxsackievirus B3-H3; experiment: microbe, parasite or virus in culture; assay type: cell-based; details: read-out: EC50 CVB3-H3
[6] = tested on: Enterovirus 71; experiment: microbe, parasite or virus in culture; assay type: cell-based; details: read-out: EC50 EV71
[7] = tested on: LLC cells
[8] = tested on: Coxsackievirus A9; experiment: microbe, parasite or virus in culture; assay type: cell-based; details: read-out: EC50 COX A9
[9] = tested on: Echovirus 6; experiment: microbe, parasite or virus in culture; assay type: cell-based; details: read-out: EC50 ECHO06
[10] = tested on: Echovirus 9; experiment: microbe, parasite or virus in culture; assay type: cell-based; details: read-out: EC50 ECHO09
[11] = tested on: Coxsackievirus B4; experiment: microbe, parasite or virus in culture; assay type: cell-based; details: read-out: EC50 CVB4
[12] = tested on: Coxsackievirus B5; experiment: microbe, parasite or virus in culture; assay type: cell-based; details: read-out: EC50 CVB5
[13] = tested on: Coxsackievirus B1; experiment: microbe, parasite or virus in culture; assay type: cell-based; details: read-out: EC50 CVB1
[14] = tested on: Echovirus 7; experiment: microbe, parasite or virus in culture; assay type: cell-based; details: read-out: EC50 ECHO07
[15] = tested on: Coxsackievirus B2; experiment: microbe, parasite or virus in culture; assay type: cell-based; details: read-out: EC50 CVB2
[16] = tested on: RD cells
[17] = tested on: Enterovirus D68/Fermon; experiment: Antiviral assay, Enterovirus D68 strain Fermon in RD cells; assay type: cell-based
[18] = tested on: Enterovirus D68/US/KY/14-18953; experiment: Antiviral assay, Enterovirus D68 strain US/KY/14-18953 in RD cells; assay type: cell-based
[19] = tested on: Enterovirus D68/US/Mo/14-18949; experiment: Antiviral assay, Enterovirus D68 strain US/Mo/14-18949 in RD cells; assay type: cell-based

SMILES | EC50 [1] [µM] | EC50 [2] | EC50 [3] [µM] | CC50 [4] [µM] | EC50 [5] [µM] | EC50 [6] [µM] | CC50 [7] [µM] | EC50 [8] [µM] | EC50 [9] [µM] | EC50 [10] [µM] | EC50 [11] [µM] | EC50 [12] [µM] | EC50 [13] [µM] | EC50 [14] [µM] | EC50 [15] [µM] | CC50 [16] [µM] | EC50 [17] [µM] | EC50 [18] [µM] | EC50 [19] [µM]
CC(C)n1ncc2c(C(=O)Nc3ccccc3F)cc(-c3ccccc3)nc21 [JX-002] | > 25 | > 25 µM | 2.9 | 37.5 | 4.5 ± 1.5 | 5.7 ± 1.5 | > 200 | 5 | 4.4 ± 0.6 | – | – | – | – | – | – | – | – | – | –
CC(C)n1ncc2c(C(=O)Nc3ccccc3F)cc(-c3ccncc3)nc21 [JX-003] | > 25 | > 25 µM | 5.3 | 37.5 | 5.1 ± 0.1 | > 10 | 45 | 7 ± 0.8 | 9.2 ± 3.2 | – | – | – | – | – | – | – | – | – | –
CC(C)n1ncc2c(C(=O)Nc3ccccc3F)cc(-c3ccccn3)nc21 [JX-004] | > 25 | > 25 µM | 3.8 | > 200 | 6.9 ± 0.7 | > 10 | 100 | 6.1 ± 2.2 | 7.8 ± 1.8 | – | – | – | – | – | – | – | – | – | –
CC(C)n1ncc2c(C(=O)Nc3ccccc3F)cc(-c3cccnc3)nc21 [JX-005] | > 25 | > 25 µM | 4.5 | 37.5 | 7 ± 2.4 | > 10 | 50 | 7.8 ± 2.6 | 9 | – | – | – | – | – | – | – | – | – | –
CC(C)n1ncc2c(C(=O)Nc3c(F)cccc3F)cc(-c3cccs3)nc21 [JX-009] | > 25 | > 25 µM | 2.8 | > 200 | 3.2 ± 0.5 | 3.4 ± 0.7 | > 200 | 4 | 4.9 ± 0.3 | – | – | – | – | – | – | – | – | – | –
CC(C)n1ncc2c(C(=O)Nc3ccccc3F)cc(-c3cncs3)nc21 [JX-010] | > 25 | > 25 µM | 3.2 | > 200 | 3.3 ± 1.4 | 3.7 ± 0.2 | 100 | 3.1 | 4.2 ± 0.3 | – | – | – | – | – | – | – | – | – | –
CC(C)n1ncc2c(C(=O)Nc3ccc(F)c(F)c3)cc(-c3cccs3)nc21 [JX-015] | > 25 | > 25 µM | – | > 200 | 1.3 ± 0.1 | – | > 200 | 1.2 | 1.3 ± 0.1 | 0.6 | 3.1 | 2.3 | 2.3 | – | – | – | – | – | –
CC(C)n1ncc2c(C(=O)Nc3cccc(F)c3)cc(-c3cccs3)nc21 [JX-021] | > 25 | > 25 µM | – | > 200 | 1.3 ± 0.2 | 2.4 ± 0.8 | > 200 | 1.6 | 1.5 ± 0.5 | 1.2 | 2.6 ± 0.5 | 2.3 | 2.6 ± 0.5 | 2.9 | 2.6 ± 0.5 | – | – | – | –
CC(C)n1ncc2c(C(=O)Nc3ccc(F)cc3)cc(-c3ccco3)nc21 [JX-026] | > 25 | > 25 µM | – | > 200 | 2.4 | 2.6 ± 0.3 | > 200 | – | 2.4 | – | 3.3 | 3.3 | 3.3 | – | 3.3 | > 200 | 1.2 | 1.3 ± 0.2 | 1 ± 0.02
CC(C)n1ncc2c(C(=O)Nc3ccncn3)cc(-c3cccs3)nc21 [JX-043] | > 10 | > 10 µM | – | 20 | 0.6 | 0.5 ± 0.1 | 50 | 0.5 | 0.2 | – | 0.5 | 0.6 | 0.6 | 0.7 | 0.6 | – | – | – | –
CC(C)n1ncc2c(C(=O)Nc3ccc(S(C)(=O)=O)cc3)cc(-c3cccs3)nc21 [JX-047] | > 10 | > 10 µM | – | 200 | 0.6 | 0.5 ± 0.1 | 50 | 0.5 | 0.3 | – | 0.6 | 0.6 | 0.6 | 0.8 | 0.6 | 75 | 0.3 | 0.3 | 0.16 ± 0.04
CC(C)n1ncc2c(C(=O)N3CCc4cc(F)ccc43)cc(-c3cccs3)nc21 [JX-048] | > 10 | > 10 µM | – | 20 | 1.5 | 1.3 ± 0.2 | > 200 | 1.2 | 1.1 | – | 1.2 | 1.2 | 1.5 | – | 1.5 | > 200 | 2.8 ± 0.45 | 4.1 ± 1.2 | 2.1 ± 0.6
CC(C)n1ncc2c(C(=O)Nc3cccc(C(N)=O)c3)cc(-c3cccs3)nc21 [JX-064] | 6.25 | 6.25 µM | – | 18 | 0.7 ± 0.1 | 0.5 | 20 | 0.6 | – | 0.2 | 0.6 | 0.6 | 0.6 | – | 0.6 | 25 | – | 0.17 | 0.05
CC(C)n1ncc2c(C(=O)Nc3cncnc3)cc(-c3cccs3)nc21 [JX-066] | > 10 | > 10 µM | – | 18 | 0.7 ± 0.2 | 0.4 | 20 | 0.4 | – | 0.2 | 0.5 | 0.5 | 0.5 | – | 0.5 | 25 | 0.06 ± 0.02 | 0.15 | 0.05 ± 0.01
CC(C)n1ncc2c(C(=O)Nc3cc(S(N)(=O)=O)ccc3F)cc(-c3cccs3)nc21 [JX-068] | 6.25 | 6.25 µM | – | 18 | 0.6 | 0.5 | 25 | 0.6 | – | 0.2 | 0.5 | 0.5 | 0.6 | – | 0.5 | 25 | 0.05 | 0.11 ± 0.01 | 0.05 ± 0.01
CC(C)n1ncc2c(C(=O)Nc3ccccn3)cc(-c3ccccc3)nc21 [JX-070] | > 10 | > 10 µM | – | 18.8 | 1.6 | 0.7 | 12.5 | – | – | – | – | – | 1.2 | 2.3 | 1.6 | 12.5 | 0.35 | 0.7 | –
CC(C)n1ncc2c(C(=O)Nc3ccccn3)cc(C3CC3)nc21 [JX-071] | > 10 | > 10 µM | – | 25 | 4.7 | 4.7 | 25 | – | – | – | – | – | 4.7 | 9.4 | 6.25 | 37 | 1.2 | 2.3 | –
CC(C)n1ncc2c(C(=O)Nc3cc(C(N)=O)ccc3F)cc(-c3cccs3)nc21 [JX-073] | 5 | 5 µM and 6.3 µM | – | 18.8 | 0.8 | 0.5 | 25 | – | – | – | – | – | 0.6 | 1.2 | 1.2 | 25 | < 0.4 | < 0.4 | –
CC(C)n1ncc2c(C(=O)N3CCc4cccnc43)cc(-c3cccs3)nc21 [JX-076] | > 10 | > 10 µM | – | 37.5 | 9.4 | 12.5 | 50 | – | – | – | – | – | – | – | – | 45 | 4 | 4.7 | 4
